These results are taken from ChEMBL document CHEMBL1909046, “DrugMatrix in vitro pharmacology data”.

The first test addresses Carbonic anhydrase 2 (Homo sapiens, UniProt P00918). Briefly: DRUGMATRIX: Carbonic Anhydrase II enzyme inhibition (substrate: 4-Nitrophenyl acetate (4-NPA)). To be noted: Not Active = under 50% inhibition at 10 µM; read-out: IC50. The class given is tissue-based, Erythrocyte.
By IC50 is commonly meant the concentration that inhibits the measured activity by half. Regarding `CN(CCOc1ccc(CC2SC(=O)NC2=O)cc1)c1ccccn1` (stereo unspecified) [ROSIGLITAZONE], the half-inhibitory concentration (IC50) is 4.07 µM.

The test is the same for the next values; noted with them: erythrocyte; Not Active = under 50% inhibition at 10 µM.
Regarding `COc1cc(N)nc2[nH]c(-c3ccc(F)cc3)c(-c3ccncc3)c12`, the IC50 result is listed as “Not Active”.
Same read-out and setting: the same measure for `CNS(=O)(=O)Cc1ccc2[nH]cc(CCN(C)C)c2c1`: “Not Active”; for `CCCc1nn(C)c2c(=O)[nH]c(-c3cc(S(=O)(=O)N4CCN(C)CC4)ccc3OCC)nc12`: “Not Active”.
The same measure, in the same setting: the same measure for `COc1ccc(/C=C/C(=O)Nc2ccccc2C(=O)O)cc1OC`: “Not Active”; for `CCOC(N)=O`: “Not Active”; for `O=c1[nH]c2ccccc2n1CCCN1CCC(n2c(=O)[nH]c3cc(Cl)ccc32)CC1` [DOMPERIDONE]: “Not Active”.
Consider `CC1=C(CC(=O)O)c2cc(F)ccc2/C1=C\c1ccc(S(C)(=O)=O)cc1` [EXISULIND], for which the half-maximal inhibitory concentration (IC50) result is reported as “Not Active”.
Turning to `CC(C)OC(=O)C(C)(C)Oc1ccc(C(=O)c2ccc(Cl)cc2)cc1` [FENOFIBRATE], the half-inhibitory concentration (IC50) entry was “Not Active”.
As for `OCCN1CCN(CCCN2c3ccccc3Sc3ccc(C(F)(F)F)cc32)CC1` [FLUPHENAZINE], the IC50 entry was “Not Active”.

For another test, the target named is D(3) dopamine receptor (Homo sapiens, UniProt P35462). Briefly: DRUGMATRIX: Dopamine D3 radioligand binding (ligand: [3H] Spiperone). The conditions noted are these: cho. The class given is cell membranes, CHO, Membrane.
Chain of D(3) dopamine receptor (P35462 whole entry): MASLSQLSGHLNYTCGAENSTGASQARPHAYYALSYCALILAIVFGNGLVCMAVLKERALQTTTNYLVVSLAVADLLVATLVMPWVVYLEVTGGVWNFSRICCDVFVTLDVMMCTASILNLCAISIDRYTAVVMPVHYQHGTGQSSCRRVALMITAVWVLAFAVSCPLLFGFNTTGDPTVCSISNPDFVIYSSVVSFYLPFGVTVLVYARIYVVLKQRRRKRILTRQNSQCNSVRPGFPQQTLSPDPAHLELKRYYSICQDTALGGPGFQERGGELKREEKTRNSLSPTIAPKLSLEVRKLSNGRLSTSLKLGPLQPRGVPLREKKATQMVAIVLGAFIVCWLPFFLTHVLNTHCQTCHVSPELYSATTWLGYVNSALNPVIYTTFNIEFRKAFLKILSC
For `COc1cc(N)nc2[nH]c(-c3ccc(F)cc3)c(-c3ccncc3)c12`, the IC50 result is listed as “Not Active”.
As for `CNS(=O)(=O)Cc1ccc2[nH]cc(CCN(C)C)c2c1`, the IC50 entry was “Not Active”.
The same measure, in the same setting: the same measure for `CCCc1nn(C)c2c(=O)[nH]c(-c3cc(S(=O)(=O)N4CCN(C)CC4)ccc3OCC)nc12`: “Not Active”; for `COc1ccc(/C=C/C(=O)Nc2ccccc2C(=O)O)cc1OC`: “Not Active”.
As to `CCOC(N)=O`, the IC50 entry is on record as “Not Active”.
In the case of `CC1=C(CC(=O)O)c2cc(F)ccc2/C1=C\c1ccc(S(C)(=O)=O)cc1` [EXISULIND], the IC50 result is on record as “Not Active”.
Same read-out and setting: then `CN(CCOc1ccc(CC2SC(=O)NC2=O)cc1)c1ccccn1` (stereo unspecified) [ROSIGLITAZONE], with “Not Active”.

Test system in another test: not listed separately
Nature of the test: DRUGMATRIX: Glutamate, NMDA, Agonism radioligand binding (ligand: [3H] CGP-39653). The class given is cell membranes, Rattus norvegicus, Wistar, Cerebral cortex, Membrane. The conditions noted are these: Not Active = under 50% inhibition at 10 µM.
As to `COc1cc(N)nc2[nH]c(-c3ccc(F)cc3)c(-c3ccncc3)c12`, the IC50 entry is recorded as “Not Active” and the Ki entry is given as “Not Active”.
For `CNS(=O)(=O)Cc1ccc2[nH]cc(CCN(C)C)c2c1`, the IC50 result is recorded as “Not Active” and the Ki entry is recorded as “Not Active”.
Take `CCCc1nn(C)c2c(=O)[nH]c(-c3cc(S(=O)(=O)N4CCN(C)CC4)ccc3OCC)nc12`: the IC50 result was “Not Active” and the Ki entry was “Not Active”.
In the case of `COc1ccc(/C=C/C(=O)Nc2ccccc2C(=O)O)cc1OC`, the half-maximal inhibitory concentration (IC50) entry is “Not Active” and the Ki entry is “Not Active”.
Turning to `CCOC(N)=O`, the IC50 result is “Not Active” and the Ki entry was “Not Active”.
As for `CC1=C(CC(=O)O)c2cc(F)ccc2/C1=C\c1ccc(S(C)(=O)=O)cc1` [EXISULIND], the IC50 entry is “Not Active” and the Ki entry is “Not Active”.
On to `CN(CCOc1ccc(CC2SC(=O)NC2=O)cc1)c1ccccn1` (stereo unspecified) [ROSIGLITAZONE], for which the 50% inhibitory concentration (IC50) entry was “Not Active” and the Ki entry was “Not Active”.

The target in the next test is T1, Amine oxidase [flavin-containing] A (Homo sapiens, UniProt P21397).
T1 sequence (P21397 whole entry): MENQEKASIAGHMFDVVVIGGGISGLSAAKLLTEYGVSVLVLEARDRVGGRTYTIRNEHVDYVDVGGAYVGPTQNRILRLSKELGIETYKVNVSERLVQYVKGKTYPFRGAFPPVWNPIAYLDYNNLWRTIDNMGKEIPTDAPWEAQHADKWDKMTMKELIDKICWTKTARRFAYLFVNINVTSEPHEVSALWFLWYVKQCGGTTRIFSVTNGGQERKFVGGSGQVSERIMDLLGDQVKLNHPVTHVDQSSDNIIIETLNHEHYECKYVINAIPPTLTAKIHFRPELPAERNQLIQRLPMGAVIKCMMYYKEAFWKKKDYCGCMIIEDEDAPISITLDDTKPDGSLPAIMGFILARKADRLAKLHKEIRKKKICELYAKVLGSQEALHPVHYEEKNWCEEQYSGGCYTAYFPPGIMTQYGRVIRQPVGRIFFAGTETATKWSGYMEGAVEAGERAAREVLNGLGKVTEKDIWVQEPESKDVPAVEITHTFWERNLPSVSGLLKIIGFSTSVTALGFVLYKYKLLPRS
Briefly: DRUGMATRIX: Monoamine Oxidase MAO-A enzyme inhibition (substrate: Kynuramine). Set-up: species or system BTI-TN-5B1-4. To be noted: bti-tn-5b1-4; Not Active = under 50% inhibition at 10 µM.
On to `COc1cc(N)nc2[nH]c(-c3ccc(F)cc3)c(-c3ccncc3)c12`, for which the IC50 result is given as “Not Active”.
Same read-out and setting: the same measure for `CNS(=O)(=O)Cc1ccc2[nH]cc(CCN(C)C)c2c1`: “Not Active”.
On to `CCCc1nn(C)c2c(=O)[nH]c(-c3cc(S(=O)(=O)N4CCN(C)CC4)ccc3OCC)nc12`, for which the IC50 result is given as “Not Active”.
Consider `COc1ccc(/C=C/C(=O)Nc2ccccc2C(=O)O)cc1OC`, for which the IC50 entry is on record as “Not Active”.
As to `CCOC(N)=O`, the IC50 result is reported as “Not Active”.
Same read-out and setting: then `O=c1[nH]c2ccccc2n1CCCN1CCC(n2c(=O)[nH]c3cc(Cl)ccc32)CC1` [DOMPERIDONE], with “Not Active”; and `CC1=C(CC(=O)O)c2cc(F)ccc2/C1=C\c1ccc(S(C)(=O)=O)cc1` [EXISULIND], with “Not Active”.
`CC(C)OC(=O)C(C)(C)Oc1ccc(C(=O)c2ccc(Cl)cc2)cc1` [FENOFIBRATE]: the IC50 entry is on record as “Not Active”.
With `OCCN1CCN(CCCN2c3ccccc3Sc3ccc(C(F)(F)F)cc32)CC1` [FLUPHENAZINE], the half-inhibitory concentration (IC50) entry is “Not Active”.
On to `CN(CCOc1ccc(CC2SC(=O)NC2=O)cc1)c1ccccn1` (stereo unspecified) [ROSIGLITAZONE], for which the IC50 result is on record as “Not Active”.

The target of the next test is T2, Muscarinic acetylcholine receptor M5 (Homo sapiens, UniProt P08912). Further: in other assays of this panel Not Active means under 50% inhibition at 10 µM.
T2 sequence (P08912 whole entry): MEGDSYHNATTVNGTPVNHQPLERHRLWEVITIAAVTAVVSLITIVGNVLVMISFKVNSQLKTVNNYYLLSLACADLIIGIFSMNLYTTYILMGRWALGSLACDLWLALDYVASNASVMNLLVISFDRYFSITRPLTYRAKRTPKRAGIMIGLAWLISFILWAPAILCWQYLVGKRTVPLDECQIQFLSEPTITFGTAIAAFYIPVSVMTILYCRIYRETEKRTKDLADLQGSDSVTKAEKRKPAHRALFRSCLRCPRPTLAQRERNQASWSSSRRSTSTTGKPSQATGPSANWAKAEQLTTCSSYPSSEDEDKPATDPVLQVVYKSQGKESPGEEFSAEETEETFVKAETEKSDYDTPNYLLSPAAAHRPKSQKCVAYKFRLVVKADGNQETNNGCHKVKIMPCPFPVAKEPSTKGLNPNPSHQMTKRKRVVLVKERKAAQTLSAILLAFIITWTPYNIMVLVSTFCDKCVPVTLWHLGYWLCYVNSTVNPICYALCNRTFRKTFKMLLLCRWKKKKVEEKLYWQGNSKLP
The test is classed as cell membranes, Membrane. The conditions noted are these: cho-k1.
Turning to `COc1cc(N)nc2[nH]c(-c3ccc(F)cc3)c(-c3ccncc3)c12`, the IC50 entry is “Not Active”.
Consider `CNS(=O)(=O)Cc1ccc2[nH]cc(CCN(C)C)c2c1`, for which the IC50 entry is “Not Active”.
The same measure, in the same setting: then `CCCc1nn(C)c2c(=O)[nH]c(-c3cc(S(=O)(=O)N4CCN(C)CC4)ccc3OCC)nc12`, with “Not Active”.
With `COc1ccc(/C=C/C(=O)Nc2ccccc2C(=O)O)cc1OC`, the half-inhibitory concentration (IC50) entry is given as “Not Active”.
On the same count and under the same terms, then `CCOC(N)=O`, with “Not Active”.
As to `O=c1[nH]c2ccccc2n1CCCN1CCC(n2c(=O)[nH]c3cc(Cl)ccc32)CC1` [DOMPERIDONE], the IC50 result is on record as “Not Active”.
Still for that read-out and setting: then `CC1=C(CC(=O)O)c2cc(F)ccc2/C1=C\c1ccc(S(C)(=O)=O)cc1` [EXISULIND], with “Not Active”; and `CC(C)OC(=O)C(C)(C)Oc1ccc(C(=O)c2ccc(Cl)cc2)cc1` [FENOFIBRATE], with “Not Active”; and `OCCN1CCN(CCCN2c3ccccc3Sc3ccc(C(F)(F)F)cc32)CC1` [FLUPHENAZINE], with “Not Active”.
For the compound `CN(CCOc1ccc(CC2SC(=O)NC2=O)cc1)c1ccccn1` (stereo unspecified) [ROSIGLITAZONE], the IC50 result was “Not Active”.

In a further test the target is T3, Cathepsin G (Homo sapiens, UniProt P08311).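 Further: inhibition of Cathepsin G enzyme activity, tested on an AMC-conjugated peptide substrate; in other assays of this panel Not Active means under 50% inhibition at 10 µM.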
T3 sequence (P08311 whole entry): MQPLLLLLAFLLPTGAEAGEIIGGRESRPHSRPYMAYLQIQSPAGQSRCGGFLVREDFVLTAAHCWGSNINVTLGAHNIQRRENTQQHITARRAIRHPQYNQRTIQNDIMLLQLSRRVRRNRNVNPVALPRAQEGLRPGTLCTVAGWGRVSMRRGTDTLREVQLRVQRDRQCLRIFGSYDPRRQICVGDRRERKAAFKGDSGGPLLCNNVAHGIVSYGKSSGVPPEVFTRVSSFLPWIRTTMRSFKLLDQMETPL
The test is classed as tissue-based. To be noted: neutrophil.
Consider `COc1cc(N)nc2[nH]c(-c3ccc(F)cc3)c(-c3ccncc3)c12`, for which the 50% inhibitory concentration (IC50) entry was “Not Active”.
Still for that read-out and setting: the same measure for `CNS(=O)(=O)Cc1ccc2[nH]cc(CCN(C)C)c2c1`: “Not Active”; for `CCCc1nn(C)c2c(=O)[nH]c(-c3cc(S(=O)(=O)N4CCN(C)CC4)ccc3OCC)nc12`: “Not Active”; for `COc1ccc(/C=C/C(=O)Nc2ccccc2C(=O)O)cc1OC`: “Not Active”.
Same read-out and setting: then `CCOC(N)=O`, with “Not Active”; and `O=c1[nH]c2ccccc2n1CCCN1CCC(n2c(=O)[nH]c3cc(Cl)ccc32)CC1` [DOMPERIDONE], with “Not Active”.
On to `CC1=C(CC(=O)O)c2cc(F)ccc2/C1=C\c1ccc(S(C)(=O)=O)cc1` [EXISULIND], for which the IC50 entry was “Not Active”.
Regarding `CC(C)OC(=O)C(C)(C)Oc1ccc(C(=O)c2ccc(Cl)cc2)cc1` [FENOFIBRATE], the Ki entry is listed as “Not Active”.
With `OCCN1CCN(CCCN2c3ccccc3Sc3ccc(C(F)(F)F)cc32)CC1` [FLUPHENAZINE], the half-maximal inhibitory concentration (IC50) result is “Not Active”.
On the same count and under the same terms, the same measure for `CN(CCOc1ccc(CC2SC(=O)NC2=O)cc1)c1ccccn1` (stereo unspecified) [ROSIGLITAZONE]: “Not Active”.

Another test deals with Mitogen-activated protein kinase 3 (Homo sapiens, UniProt P27361). Nature of the test: DRUGMATRIX: Protein Serine/Threonine Kinase, ERK1 enzyme inhibition (substrate: Myelin Basic Protein). Set-up: species or system Escherichia coli. To be noted: Not Active = under 50% inhibition at 10 µM.
Chain of Mitogen-activated protein kinase 3 (P27361 whole entry): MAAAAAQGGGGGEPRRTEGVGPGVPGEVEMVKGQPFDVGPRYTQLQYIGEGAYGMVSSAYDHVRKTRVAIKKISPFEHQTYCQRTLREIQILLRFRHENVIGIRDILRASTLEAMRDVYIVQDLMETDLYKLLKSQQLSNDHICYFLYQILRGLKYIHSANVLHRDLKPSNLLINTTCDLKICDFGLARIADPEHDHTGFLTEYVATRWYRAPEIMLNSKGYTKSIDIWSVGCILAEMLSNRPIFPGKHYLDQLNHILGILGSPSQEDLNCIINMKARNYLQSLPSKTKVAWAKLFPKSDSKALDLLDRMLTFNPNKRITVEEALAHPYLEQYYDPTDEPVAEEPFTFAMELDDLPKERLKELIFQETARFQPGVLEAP
As for `COc1cc(N)nc2[nH]c(-c3ccc(F)cc3)c(-c3ccncc3)c12`, the IC50 entry was “Not Active”.
For `CNS(=O)(=O)Cc1ccc2[nH]cc(CCN(C)C)c2c1`, the half-maximal inhibitory concentration (IC50) entry is reported as “Not Active”.
As for `CCCc1nn(C)c2c(=O)[nH]c(-c3cc(S(=O)(=O)N4CCN(C)CC4)ccc3OCC)nc12`, the IC50 entry is “Not Active”.
Still for that read-out and setting: then `COc1ccc(/C=C/C(=O)Nc2ccccc2C(=O)O)cc1OC`, with “Not Active”.
Regarding `CCOC(N)=O`, the concentration for half-maximal inhibition (IC50) entry is reported as “Not Active”.
Still for that read-out and setting: the same measure for `O=c1[nH]c2ccccc2n1CCCN1CCC(n2c(=O)[nH]c3cc(Cl)ccc32)CC1` [DOMPERIDONE]: “Not Active”; for `CC1=C(CC(=O)O)c2cc(F)ccc2/C1=C\c1ccc(S(C)(=O)=O)cc1` [EXISULIND]: “Not Active”; for `CC(C)OC(=O)C(C)(C)Oc1ccc(C(=O)c2ccc(Cl)cc2)cc1` [FENOFIBRATE]: “Not Active”.
Turning to `OCCN1CCN(CCCN2c3ccccc3Sc3ccc(C(F)(F)F)cc32)CC1` [FLUPHENAZINE], the IC50 result was “Not Active”.
With `CN(CCOc1ccc(CC2SC(=O)NC2=O)cc1)c1ccccn1` (stereo unspecified) [ROSIGLITAZONE], the half-maximal inhibitory concentration (IC50) result is on record as “Not Active”.
